Data published in PMC12583704 (Signal Transduction and Targeted Therapy, 2025).

Tested on: non-SDH-deficient GISTs
Assay: Phase 1 study: antitumor efficacy per RECIST v1.1 in non-SDH-deficient GIST
Type: in vivo, human
Procedure: AEs were evaluated at each follow-up visit: on Days 1, 8, 15, and 22 during Cycles 1 and 2; and on Days 1 and 15 in Cycle 3 and all subsequent cycles, up to 30 days after the final dose. All AEs were graded according to the National Cancer Institute Common Terminology Criteria for Adverse Events v4.03. Clinical laboratory investigations for routine blood examinations and serum chemistry parameters were performed during every cycle (on Day 1), during Cycles 1 and 2 (on Days 8, 15, and 22), and 30 days after the last dose of treatment. Urinalysis, coagulation, cardiac troponin I/T, lipase, amylase, and electrocardiographic evaluations were conducted at baseline; during Cycles 1 and 2 (on Days 1 and 15); during Cycles 3, 5, 7, and 9; every three cycles after Cycle 9 (on Day 1); and 14 days after the last dose of treatment. All patients underwent tumor imaging for response assessment via computed tomography or magnetic resonance imaging at screening and every two cycles (8 weeks) until progression or discontinuation. Target and nontarget lesions were assessed per the Response Evaluation Criteria in Solid Tumors version 1.1 (RECIST v1.1). […]
Antitumor activity was evaluated in patients from the GIST population (including those with SDH-deficient and non-SDH-deficient disease) who had undergone at least one postbaseline disease assessment. […]

Cc1ccc(C(=O)Nc2ccc(CN3CCN(C)CC3)c(C(F)(F)F)c2)cc1C#Cc1cnc2[nH]ncc2c1 [Olverembatinib, 3-[(1H-pyrazolo[3,4-b]pyridin-5-yl)ethynyl]-4-methyl-N-{4-[(4-methylpiperazin-1-yl)methyl]-3-(trifluoromethyl)phenyl]benzamide]
response (25 evaluable patients): no response was observed
median PFS (patients with non-SDH-deficient GISTs, Kaplan-Meier): 2.9 (1.7–5.2) months
